Measurements from patent publication US6867185B2 (Bristol-Myers Squibb Company, priority 2001, dated 2005).
Structures can show the parent of a compound that is named as a salt.

Tests used:
[1] = system: HCV replicon in Huh7 cells; assay: HCV replicon cell-based assay (replicon FRET assay); design: species or system HCV strain 1B; conditions: Hepatitis C virus, Huh-7, HCV replicon cell assay; EC50 ranges
From the text: An HCV replicon whole cell system was established as described by Lohmann V, Korner F, Koch J, Herian U, Theilmann L, Bartenschlager R., Science 285 (5424):110-3 (1999). This system enabled us to evaluate the effects of our HCV Protease compounds on HCV RNA replication. Briefly, using the HCV strain 1B sequence described in the Lohmann paper (Assession number:AJ238799), an HCV cDNA was generated encoding the 5′ internal ribosome entry site (IRES), the neomycin resistance gene, the EMCV (encephalomyocarditis viurs)-IRES and the HCV nonstructural proteins, NS3-NS5B, and 3′ non-translated region (NTR). In vitro transcripts of the cDNA were transfected into the human hepatoma cell line, Huh7. […] Resulting cell lines were characterized for positive and negative strand RNA production and protein production over time.
Huh7 cells, constitutively expressing the HCV replicon, were grown in Dulbecco's Modified Eagle Media (DMEM) containing 10% Fetal calf serum (FCS) and 1 mg/ml G418 (Gibco-BRL). Cells were seeded the night before (1.5×10^4 cells/well) in 96-well tissue-culture sterile plates. Compound and no compound controls were prepared in DMEM containing 4% FCS, 1:100 Penicillin/Streptomysin, 1:100 L-glutamine and 5% DMSO in the dilution plate (0.5% DMSO final concentration in the assay). Compound/DMSO mixes were added to the cells and incubated for 4 days at 37° C. After 4 days, plates were rinsed thoroughly with Phosphate-Buffered Saline (PBS) (3 times 150 μl). The cells were lysed with 25 μl of a lysis assay reagent containing the FRET peptide (RET S1, as described for the in vitro enzyme assay). The lysis assay reagent was made from 5× cell Luciferase cell culture lysis reagent(Promega #E153A) diluted to 1× with distilled water, NaCl added to 150 mM final, the FRET peptide diluted to 10 μM final from a 2 mM stock in 100% DMSO. The plate was then placed into the Cytofluor 4000 instrument which had been set to 340 nm excitation/490 emission, automatic mode for 21 cycles and the plate read in a kinetic mode. EC50 determinations were carried out as described for the IC50 determinations.

[2] = target: T1, HCV NS3/4A protease complex, BMS strain (genotype 1a) (Hepatitis C virus genotype 1a, UniProt P27958, C1454S/C1711G); assay: Recombinant HCV NS3/4A protease complex FRET peptide assay (BMS strain); type: biochemical; conditions: IC50, HCV NS3/4A protease FRET assay in vitro; IC50 ranges
T1 construct: recombinant HCV NS3/4A protease complex (amino'acids 1027 to 1711); inferred from the pET21b vector and Ni-NTA purification; made in house; host or cells: Escherichia coli BL21 (DE3), pET21b
T1 sequence (P27958 1027-1711 C1454S/C1711G, one chain of several): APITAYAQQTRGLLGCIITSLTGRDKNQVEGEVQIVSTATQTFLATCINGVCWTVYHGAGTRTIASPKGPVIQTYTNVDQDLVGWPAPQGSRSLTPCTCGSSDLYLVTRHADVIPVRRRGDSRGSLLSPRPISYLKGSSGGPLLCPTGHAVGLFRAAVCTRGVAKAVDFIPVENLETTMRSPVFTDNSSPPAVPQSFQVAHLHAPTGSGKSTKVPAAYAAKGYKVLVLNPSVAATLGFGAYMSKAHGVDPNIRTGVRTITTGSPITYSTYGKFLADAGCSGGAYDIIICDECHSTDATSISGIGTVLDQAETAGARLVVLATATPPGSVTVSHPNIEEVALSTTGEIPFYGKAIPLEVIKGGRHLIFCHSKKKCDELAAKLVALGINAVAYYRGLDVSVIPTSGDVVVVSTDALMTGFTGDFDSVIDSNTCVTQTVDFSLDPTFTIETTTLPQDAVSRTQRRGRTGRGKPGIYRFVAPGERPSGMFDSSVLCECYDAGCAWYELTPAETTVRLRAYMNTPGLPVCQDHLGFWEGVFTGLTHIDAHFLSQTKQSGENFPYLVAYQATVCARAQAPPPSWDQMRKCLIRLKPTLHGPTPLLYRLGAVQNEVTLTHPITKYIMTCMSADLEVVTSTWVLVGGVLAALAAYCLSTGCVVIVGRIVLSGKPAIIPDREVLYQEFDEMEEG
From the text: The purpose of this in vitro assay was to measure the inhibition of HCV NS3 protease complexes, derived from the BMS, H77C or J4L6S strains, as described below, by compounds of the present invention. This assay provides an indication of how effective compounds of the present invention would be in inhibiting HCV proteolytic activity.
Serum from an HCV-infected patient was obtained from Dr. T. Wright, San Francisco Hospital. An engineered full-length cDNA (compliment deoxyribonucleic acid) template of the HCV genome (BMS strain) was constructed from DNA fragments obtained by reverse transcription-PCR (RT-PCR) of serum RNA (ribonucleic acid) and using primers selected on the basis of homology between other genotype 1a strains. From the determination of the entire genome sequence, a genotype 1a was assigned to the HCV isolate according to the classification of Simmonds et al. (See P Simmonds, K A Rose, S Graham, S W Chan, F McOmish, B C Dow, E A Follett, P L Yap and H Marsden, J. Clin. Microbiol., 31 (6), 1493-1503 (1993)). […] The infectious clones, H77C (1a genotype) and J4L6S (1b genotype) were obtained from R. Purcell (N1H) and the sequences are published in Genbank (AAB67036, see Yanagi, M., Purcell, R. H., Emerson, S. U. and Bukh, J. Proc. Natl. Acad. Sci. U.S.A. 94 (16), 8738-8743 (1997); AF054247, see Yanagi, M., St Claire, M., Shapiro, M., Emerson, S. U., Purcell, R. H. and Bukh, J, Virology 244 (1), 161-172. (1998)).
The BMS, H77C and J4L6S strains were used for production of recombinant NS3/4A protease complexes. DNA encoding the recombinant HCV NS3/4A protease complex (amino'acids 1027 to 1711) for these strains were manipulated as described by P. Gallinari et al. (see Gallinari P, Paolini C, Brennan D, Nardi C, Steinkuhler C, De Francesco R. Biochemistry. 38 (17):5620-32, (1999)). Briefly, a three-lysine solubilizing tail was added at the 3′-end of the NS4A coding region. The cysteine in the P1 position of the NS4A-NS4B cleavage site (amino acid 1711) was changed to a glycine to avoid the proteolytic cleavage of the lysine tag. Furthermore, a cysteine to serine mutation was introduced by PCR at amino acid position 1454 to prevent the autolytic cleavage in the NS3 helicase domain. The variant DNA fragment was cloned in the pET21b bacterial expression vector (Novagen)and the NS3/4A complex was expressed in Escherichia. coli strain BL21 (DE3) (Invitrogen) following the protocol described by P. Gallinari et al. (see Gallinari P, Brennan D, Nardi C, Brunetti M, Tomei L, Steinkuhler C, De Francesco R., J. Virol. 72 (8):6758-69 (1998)) with modifications. Briefly, NS3/4A expression was induced with 0.5 mM Isopropyl β-D-1-thiogalactopyranoside (IPTG) for 22 hr at 20° C. A typical fermentation (10L) yielded approximately 80 g of wet cell paste. The cells were resuspended in lysis buffer (10 mL/g) consisting of 25 mM N-(2-Hydroxyethyl)Piperazine-N′-(2-Ethane Sulfonic acid) (HEPES), pH 7.5, 20% glycerol, 500 mM Sodium Chloride (NaCl), 0.5% Triton-X100, 1 ug/ml lysozyme, 5 mM Magnesium Chloride (MgCl2), 1 ug/ml Dnasel, 5 mM β-Mercaptoethanol (OME), Protease inhibitor-Ethylenediamine Tetraacetic acid (EDTA) free (Roche), homogenized and incubated for 20 mins at 4° C. The homogenate was sonicated and clarified by ultra-centrifugation at 235000 g for 1 hr at 4° C. Imidazole was added to the supernatant to a final concentration of 15 mM and the pH adjusted to 8.0. The crude protein extract was loaded on a Nickel-Nitrilotriacetic acid (Ni-NTA) column pre-equilibrated with buffer B (25 mM HEPES, pH 8.0, 20% glycerol, 500 mM NaCl, 0.5% Triton-X100, 15 mM imidazole, 5 mM βME). The sample was loaded at a flow rate of 1 mL/min. The column was washed with 15 column volumes of buffer C (same as buffer B except with 0.2% Triton-X100). The protein was eluted with 5 column volumes of buffer D (same as buffer C except with 200 mM Imidazole). […]

Compound | EC50 [1] [nM] | IC50 [2] [nM]
COc1ccc2c(O[C@@H]3C[C@H]4C(=O)N[C@]5(C(=O)NS(=O)(=O)C6CC6)C[C@H]5/C=C\CCCCC[C@@H](NC(=O)OC(C)(C)C)C(=O)N4C3)ccnc2c1 [Compound 12] | < 500 | < 500
COc1ccc2c(O[C@@H]3C[C@H]4C(=O)N[C@]5(C(=O)NS(=O)(=O)C6CC6)C[C@H]5CCCCCC[C@H](NC(=O)OC(C)(C)C)C(=O)N4C3)cc(-c3ccccc3)nc2c1 [Compound 13, (1S,4R,6R,13S,17R)-[4-Cyclopropanesulfonylaminocarbonyl-17-(7-methoxy-2-phenylquinolin-4-yloxy)-2,14-dioxo-3,15-diazatricyclo[13.3.0.0^4,6]-octadec-13-yl]-carbamic acid tert-butyl ester] | < 50 | < 50
COc1ccc2c(O[C@@H]3C[C@H]4C(=O)N[C@]5(C(=O)NS(=O)(=O)C6CC6)C[C@H]5CCCCCC[C@H](N)C(=O)N4C3)cc(-c3ccccc3)nc2c1 [Compound 14, (1S,4R,6R,13S,17R)-Cyclopropanesulfonic acid [13-amino-17-(7-methoxy-2-phenylquinolin-4-yloxy)-2,14-dioxo-3,15-diazatricyclo[13.3.0.0^4,6]-octadecane-4-carbonyl]amide dihydrochloride] | < 50 | < 50
COc1ccc2c(O[C@@H]3C[C@H]4C(=O)N[C@]5(C(=O)NS(=O)(=O)C6CC6)C[C@H]5CCCCCCC[C@H](NC(=O)OC(C)(C)C)C(=O)N4C3)cc(-c3ccccc3)nc2c1 [Compound 15, (1S,4R,6R,14S,18R)-[4-Cyclopropanesulfonylaminocarbonyl-18-(7-methoxy-2-phenylquinolin-4-yloxy)-2,15-dioxo-3,16-diazatricyclo-[14.3.0.0^4,6]nonadec-14-yl]carbamic acid tert-butyl ester] | < 50 | < 50
COc1ccc2c(O[C@@H]3C[C@H]4C(=O)N[C@]5(C(=O)NS(=O)(=O)C6CC6)C[C@H]5CCCCCCC[C@H](N)C(=O)N4C3)cc(-c3ccccc3)nc2c1 [Compound 16, (1S,4R,6R,14S,18R)-Cyclopropanesulfonic acid [14-amino-18-(7-methoxy-2-phenylquinolin-4-yloxy)-2,15-dioxo-3,16-diazatricyclo[14.3.0.0^4,6]-nonadecane-4-carbonyl]amide dihydrochloride] | < 50 | < 50
COc1ccc2c(O[C@@H]3C[C@H]4C(=O)N[C@]5(C(=O)NS(=O)(=O)C6CCC6)C[C@H]5/C=C\CCCC[C@H](NC(=O)OC(C)(C)C)C(=O)N4C3)cc(-c3ccccc3)nc2c1 [Compound 17, (1S,4R,6S,13S,17R)-7-cis-[4-Cyclobutanesulfonylaminocarbonyl-17-(7-methoxy-2-phenylquinolin-4-yloxy)-2,14-dioxo-3,15-diazatricyclo[13.3.0.0^4,6]octadec-7-en-13-yl]carbamic acid tert-butyl ester] | < 500 | < 50
COc1ccc2c(O[C@@H]3C[C@H]4C(=O)N[C@]5(C(=O)NS(=O)(=O)C6CCC6)CC5CCCCCC[C@H](NC(=O)OC(C)(C)C)C(=O)N4C3)cc(-c3ccccc3)nc2c1 (stereo partly drawn) [Compound 18, (1S,4R,6R,13S,17R)-[4-Cyclobutanesulfonylaminocarbonyl-17-(7-methoxy-2-phenylquinolin-4-yloxy)-2,14-dioxo-3,15-diazatricyclo[13.3.0.0^4,6]octa-dec-13-yl]carbamic acid tert-butyl ester] | < 50 | < 50
COc1ccc2c(O[C@@H]3C[C@H]4C(=O)N[C@]5(C(=O)NS(=O)(=O)C6CCC6)CC5CCCCCCC[C@H](NC(=O)OC(C)(C)C)C(=O)N4C3)cc(-c3ccccc3)nc2c1 (stereo partly drawn) [Compound 19, (1S,4R,6R,14S,18R)-[4-Cyclobutanesulfonylaminocarbonyl-18-(7-methoxy-2-phenylquinolin-4-yloxy)-2,15-dioxo-3,16-diazatricyclo-[14.3.0.0^4,6]nona-dec-14-yl]carbamic acid tert-butyl ester] | < 50 | < 50
COc1ccc2c(O[C@@H]3C[C@H]4C(=O)N[C@]5(C(=O)NS(=O)(=O)C6CC6)CC5/C=C\CCCCC[C@H](NC(=O)NC(C)(C)C)C(=O)N4C3)cc(-c3ccccc3)nc2c1 (stereo partly drawn) [Compound 20, (1S,4R,6S,14S,18R)-7-cis-Cyclopropanesulfonic acid [14-(3-tert-butylureido)-18-(7-methoxy-2-phenyl-quinolin-4-yloxy)-2,15-dioxo-3,16-diazatricyclo[14.3.0.0^4,6]nona-dec-7-ene-4-carbonyl]amide] | < 50 | < 50
COc1ccc2c(O[C@@H]3C[C@H]4C(=O)N[C@]5(C(=O)NS(=O)(=O)C6CC6)C[C@H]5/C=C\CCCCC[C@H](NC(=O)OCCF)C(=O)N4C3)cc(-c3ccccc3)nc2c1 [Compound 21, (1S,4R,6S,14S,18R)-7-cis-[4-Cyclopropanesulfonylaminocarbonyl-18-(7-methoxy-2-phenylquinolin-4-yloxy)-2,15-dioxo-3,16-diazatricyclo-[14.3.0.0^4,6]nonadec-7-en-14-yl]carbamic acid 2-fluoroethyl ester] | < 50 | < 50
